Laboratory results published in DBAASP.
Converted amounts (≈) assume the structure as drawn.

What was measured:
Assay in all cases: ≥ marks a high value that may be exact or a test limit, other limits are often not marked, values filed in µg/mL are converted to µM
[1] = system: Staphylococcus aureus 215
[2] = system: Pseudomonas aeruginosa PAO1
Staphylococcus aureus MR = system: Staphylococcus aureus MR
[3] = system: Salmonella enterica ATCC H9812
[4] = system: Bacillus licheniformis ATCC 14580
[5] = system: Enterococcus faecalis 1F-1
[6] = system: Proteus mirabilis ATCC 35659
[7] = system: Escherichia coli ATCC 25922
Enterococcus faecalis A4 = system: Enterococcus faecalis A4
[8] = system: Staphylococcus aureus ATCC 29213
[9] = system: Enterococcus faecium 4W-9
[10] = system: Bacillus amyloliquefaciens ATCC 23842
[11] = system: Bacillus cereus ATCC 14579
[12] = system: Enterococcus faecium 5F-10
[13] = system: Bacillus subtilis ATCC 6051
Escherichia coli E416-7 = system: Escherichia coli E416-7
[14] = system: Klebsiella pneumoniae ATCC 13883
[15] = system: Klebsiella pneumoniae E406-17
[16] = system: Enterococcus faecium V286-17
[17] = system: Staphylococcus aureus JE2
[18] = system: Pseudomonas aeruginosa E411-17
[19] = system: Staphylococcus aureus M838-17
Escherichia coli BL21 = system: Escherichia coli BL21
Escherichia coli ESBL = system: Escherichia coli ESBL
Bacillus subtilis 168 = system: Bacillus subtilis 168
Staphylococcus aureus = system: Staphylococcus aureus
[20] = system: Staphylococcus aureus ATCC BAA-41
[21] = system: Pseudomonas aeruginosa ATCC BAA-2114
[22] = system: Staphylococcus epidermidis ATCC 12228
[23] = system: Escherichia coli ATCC 35218
[24] = system: Staphylococcus aureus ATCC 33591
[25] = system: Enterococcus faecium ATCC BAA-2316
[26] = system: Staphylococcus aureus ATCC 43300
Escherichia coli C25 = system: Escherichia coli C25
[27] = system: Staphylococcus aureus ATCC 25923
Escherichia coli JJ2489 = system: Escherichia coli JJ2489
Escherichia coli JW0013 = system: Escherichia coli JW0013
[28] = system: Salmonella typhimurium SL1344
[29] = system: Escherichia coli JW0368 ΔsbmA
Escherichia coli BW25113 = system: Escherichia coli BW25113
[30] = system: Escherichia coli JW2778 ΔygdD
Escherichia coli J2210 = system: Escherichia coli J2210
Escherichia coli MC1041 = system: Escherichia coli MC1041
[31] = system: Salmonella enterica subsp. enterica serovar Enteritidis MH91989
[32] = system: Candida albicans ATCC 5314
[33] = system: Staphylococcus aureus ATCC 8325-4
[34] = system: Staphylococcus aureus ATCC 6538
[35] = system: Streptococcus mutans ATCC UA159
[36] = system: Streptococcus sanguinis ATCC 10556

`CC(=O)N[C@@H](CCC(=O)O)C(=O)N[C@@H](CC(C)C)C(=O)N[C@@H](CC(C)C)C(=O)N[C@@H](CO)C(=O)N[C@@H](CCCN=C(N)N)C(=O)N[C@H](C(=O)N[C@@H](CC(N)=O)C(=O)O)C(C)C` [ELLSRVN] was tested, and the MIC [1] was ≥ 38.6 µM, the MIC [2] was 154 µM (≈ 134 µg/mL) and the MIC (Staphylococcus aureus MR) was ≥ 38.6 µM. The MIC [3] was ≥ 154 µM, the MIC [4] was ≥ 154 µM and the MIC [5] was ≥ 154 µM. The MIC [6] was ≥ 154 µM, the MIC [7] was 77.1 µM (≈ 67.2 µg/mL) and the MIC (Enterococcus faecalis A4) was ≥ 154 µM. The MIC [8] was 38.6 µM (≈ 33.6 µg/mL), the MIC [9] was ≥ 154 µM and the MIC [10] was ≥ 154 µM. The MIC [11] was ≥ 154 µM, the MIC [12] was ≥ 154 µM and the MIC [13] was ≥ 154 µM.

With `CC(C)C[C@H](NC(=O)[C@H](CC(C)C)NC(=O)[C@H](CCCCN)NC(=O)[C@H](CC(C)C)NC(=O)CNC(=O)[C@H](CC(C)C)NC(=O)[C@H](CO)NC(=O)[C@H](CC(C)C)NC(=O)[C@H](CC(C)C)NC(=O)[C@H](CC(C)C)NC(=O)[C@H](CO)NC(=O)[C@H](CC(C)C)NC(=O)CN)C(N)=O` [GLSLLLSLGLKLL] the MIC (Escherichia coli E416-7) was ≥ 50 µM, the MIC [2] was > 25 µM and the MIC [14] was 25 µM (≈ 33.5 µg/mL). The MIC [15] was ≥ 50 µM, the MIC [16] was 4.4 µM (≈ 5.89 µg/mL) and the MIC [17] was 1.56 µM (≈ 2.09 µg/mL). For the same compound, the MIC [18] was ≥ 50 µM, the MIC [7] was > 25 µM and the MIC [19] was 3.1 µM (≈ 4.15 µg/mL).

`CC[C@H](C)[C@H](N)C(=O)N[C@H](C(=O)N[C@@H](CCCCN)C(=O)N[C@@H](CCCCN)C(=O)N[C@H](C(=O)N[C@H](C(=O)N[C@@H](CCCCN)C(=O)N[C@@H](CCCCN)C(=O)N[C@H](C(=O)N[C@H](C(=O)N[C@@H](CCCCN)C(=O)N[C@@H](CCCCN)C(=O)N[C@H](C(N)=O)[C@@H](C)CC)[C@@H](C)CC)[C@@H](C)CC)[C@@H](C)CC)[C@@H](C)CC)[C@@H](C)CC` [IIKKIIKKIIKKI] gave an MIC (Escherichia coli BL21) of 2.5 µM (≈ 3.95 µg/mL), an MIC (Escherichia coli ESBL) of 12 µM (≈ 18.9 µg/mL) and an MIC (Bacillus subtilis 168) of 5 µM (≈ 7.89 µg/mL). It also gave an MIC (Staphylococcus aureus) of 7.5 µM (≈ 11.8 µg/mL).

For `CC[C@H](C)[C@H](NC(=O)[C@H](CCCN=C(N)N)NC(=O)[C@H](CCC(N)=O)NC(=O)[C@@H](NC(=O)[C@@H](NC(=O)[C@H](CCCN=C(N)N)NC(=O)[C@H](CCCCN)NC(=O)[C@H](Cc1ccccc1)NC(=O)[C@@H](NC(=O)[C@@H]1CCCN1C(=O)[C@H](CO)NC(=O)[C@H](CC(C)C)NC(=O)[C@H](CCCCN)NC(=O)[C@H](CCCCN)NC(=O)[C@H](Cc1ccccc1)NC(=O)[C@H](CC(C)C)NC(=O)[C@H](CCCCN)NC(=O)[C@H](CCCCN)NC(=O)[C@H](Cc1ccccc1)NC(=O)[C@@H](N)CCCCN)C(C)C)[C@@H](C)CC)C(C)C)C(=O)N[C@@H](CCCCN)C(=O)N[C@@H](CC(=O)O)C(=O)N[C@@H](Cc1ccccc1)C(=O)N[C@@H](CC(C)C)C(=O)N[C@@H](CCCN=C(N)N)C(=O)O` [KFKKLFKKLSPVFKRIVQRIKDFLR], the MIC [20] was 20 µM (≈ 63.3 µg/mL), the MIC [21] was 10 µM (≈ 31.6 µg/mL) and the MIC [22] was 20 µM (≈ 63.3 µg/mL). It also gave an MIC [7] of 20 µM (≈ 63.3 µg/mL), an MIC [23] of 20 µM (≈ 63.3 µg/mL) and an MIC [24] of 20 µM (≈ 63.3 µg/mL). The MIC [8] was 20 µM (≈ 63.3 µg/mL), the MIC [25] was 20 µM (≈ 63.3 µg/mL) and the MIC [26] was 20 µM (≈ 63.3 µg/mL).

In the case of `CC[C@H](C)[C@H](NC(=O)CNC(=O)[C@H](CCCN=C(N)N)NC(=O)[C@H](Cc1ccc(O)cc1)NC(=O)[C@@H](NC(=O)[C@H](CCCN=C(N)N)NC(=O)[C@H](Cc1ccccc1)NC(=O)[C@H](Cc1c[nH]c2ccccc12)NC(=O)[C@@H](N)CCCCN)C(C)C)C(=O)N[C@@H](Cc1ccc(O)cc1)C(=O)N[C@@H](CCCN=C(N)N)C(N)=O` [KWFRVYRGIYR], the MIC (Escherichia coli C25) is reported as 8.5 µM (≈ 13.1 µg/mL) and the MIC [27] is reported as 17 µM (≈ 26.2 µg/mL).

For `CC[C@H](C)[C@H](NC(=O)[C@H](CCCN=C(N)N)NC(=O)[C@@H](N)CCCN=C(N)N)C(=O)N[C@@H](CCCCN)C(=O)N[C@@H](CCCCN)C(=O)N[C@@H](CCCN=C(N)N)C(=O)N1CCC[C@H]1C(=O)N1CCC[C@H]1C(=O)N[C@@H](CCCN=C(N)N)C(=O)N[C@@H](CC(C)C)C(=O)N1CCC[C@H]1C(=O)N[C@@H](CCCN=C(N)N)C(=O)N1CCC[C@H]1C(=O)N[C@@H](CCCN=C(N)N)C(=O)N1CCC[C@H]1C(=O)N[C@@H](CCCCN)C(=O)O` [RRIKKRPPRLPRPRPK], the MIC (Escherichia coli JJ2489) was 0.12 µM (≈ 0.246 µg/mL), the MIC (Escherichia coli JW0013) was 0.06 µM (≈ 0.123 µg/mL) and the MIC [28] was 0.12 µM (≈ 0.246 µg/mL). The MIC [29] was 0.06 µM (≈ 0.123 µg/mL), the MIC (Escherichia coli BW25113) was 0.078 µM (≈ 0.16 µg/mL) and the MIC [30] was 0.12 µM (≈ 0.246 µg/mL). For the same compound, the MIC (Escherichia coli J2210) was 0.167 µM (≈ 0.343 µg/mL), the MIC (Escherichia coli MC1041) was 0.06 µM (≈ 0.123 µg/mL) and the MIC [31] was 0.167 µM (≈ 0.343 µg/mL).

With `CC[C@H](C)[C@H](NC(=O)[C@H](CCCCN)NC(=O)[C@H](CCCN=C(N)N)NC(=O)[C@H](CCC(=O)O)NC(=O)[C@H](Cc1ccc(O)cc1)NC(=O)[C@@H](N)CO)C(=O)N[C@@H](CC(N)=O)C(=O)N[C@@H](CCCN=C(N)N)C(=O)N[C@@H](Cc1cnc[nH]1)C(=O)N[C@@H](Cc1ccccc1)C(=O)N[C@@H](CCCCN)C(=O)N[C@H](C(=O)N[C@@H](CC(C)C)C(=O)N[C@@H](CCCCN)C(=O)N[C@@H](CCCCN)C(=O)N[C@@H](CC(N)=O)C(=O)N[C@@H](CC(C)C)C(=O)N[C@@H](CCCCN)C(=O)N[C@@H](CCCCN)C(=O)N[C@@H](CCCCN)C(N)=O)[C@@H](C)O` [SYERKINRHFKTLKKNLKKK] the MIC [32] was 25 µM (≈ 64 µg/mL), the MIC (Staphylococcus aureus MR) was 12.5 µM (≈ 32 µg/mL) and the MIC (Staphylococcus aureus) was 6.25 µM (≈ 16 µg/mL). It also gave an MIC [33] of 6.25 µM (≈ 16 µg/mL), an MIC [34] of 12.5 µM (≈ 32 µg/mL) and an MIC [35] of 25 µM (≈ 64 µg/mL). The MIC [8] was 12.5 µM (≈ 32 µg/mL), the MIC [36] was 25 µM (≈ 64 µg/mL) and the MIC [27] was 12.5 µM (≈ 32 µg/mL).
